Where two headings read alike, the source gives them in different places.
Assays:
human GAL3 receptor = target: T1, human GAL3 receptor (Homo sapiens, UniProt O60755); assay: Radioligand binding at cloned human GAL3 receptor
T1 construct: expressed in transfected cells
T1 sequence (O60755 1-368): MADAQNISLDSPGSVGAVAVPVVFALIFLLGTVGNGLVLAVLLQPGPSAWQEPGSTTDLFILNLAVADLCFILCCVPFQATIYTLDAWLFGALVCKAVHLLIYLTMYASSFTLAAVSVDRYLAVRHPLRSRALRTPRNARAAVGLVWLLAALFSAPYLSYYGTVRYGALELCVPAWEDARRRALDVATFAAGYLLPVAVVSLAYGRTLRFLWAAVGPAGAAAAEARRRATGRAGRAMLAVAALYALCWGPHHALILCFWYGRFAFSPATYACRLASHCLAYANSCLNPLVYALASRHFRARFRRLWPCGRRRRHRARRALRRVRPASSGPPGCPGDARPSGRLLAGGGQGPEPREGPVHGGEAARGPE
Protocol: (§1) The present invention provides for a method of determining the binding affinity of a GAL3 antagonist, wherein the GAL3 antagonist is dissolved in a “suitable solvent”. A “suitable solvent” means one which permits the measurement of binding affinity of the GAL3 antagonist to the human GAL3 receptor at concentrations less than 1 μM, preferably less than 100 nM. Examples of solvents include, but are not limited to, DMSO, ethanol, N,N-dimethylacetamide, or water. For indolones, the preferred solvent is 3% DMSO (final concentration in the assay). For pyrimidines, the preferred solvent is 1% ethanol/0.09% polypuronic acid F-127 (final concentration in the assay). For any other type of compounds, the preferred solvent is the solvent which permits the measurement of binding affinity of a GAL3 antagonist at the lowest concentration. Once a suitable solvent is ascertained for the binding assay of the human GAL3 receptor, the same solvent is used in assays to determine the binding affinity for instance, at the GAL1 receptor.
(§2) LM(tk−) cells were stably transfected with the human GAL1 or GAL3 receptor. CHO cells were stably transfected with the human GAL2 receptor.
(§3) cDNAs for the human and rat GAL1, and human and rat GAL3 receptors were transfected with a G-418 resistant gene into the mouse fibroblast LM(tk−) cell line by a calcium phosphate transfection method (Cullen, 1987). Stably transfected cells were selected with G-418. Human and rat GAL2 receptors were similarly transfected into CHO cells.
(§4) Membranes were harvested from stably transfected LM(tk−) cells. Adherent cells were washed twice in ice-cold phosphate buffered saline (138 mM NaCl, 8.1 mM Na2HPO4, […] KCl, 1.2 mM KH2PO4, 0.9 mM CaCl2, 0.5 mM MgCl2, pH 7.4) and lysed by sonication in ice-cold sonication buffer (20 mM Tris-HCl, 5 mM EDTA, pH 7.7). […] Protein concentration was measured by the Bradford method (Bradford, 1976) using Pio-Rad Reagent, with bovine serum albumin as a standard. […]
(§5) Binding data were analyzed using nonlinear regression and statistical techniques available in the GraphPAD Prism package (San, Diego, Calif.). […]

human GAL2 receptor = target: T2, human GAL2 receptor (Homo sapiens, UniProt O43603); assay: Radioligand binding at cloned human GAL2 receptor; details: read-out: Ki (nM) GalR2
T2 construct: expressed in transfected cells
T2 sequence (O43603 1-387): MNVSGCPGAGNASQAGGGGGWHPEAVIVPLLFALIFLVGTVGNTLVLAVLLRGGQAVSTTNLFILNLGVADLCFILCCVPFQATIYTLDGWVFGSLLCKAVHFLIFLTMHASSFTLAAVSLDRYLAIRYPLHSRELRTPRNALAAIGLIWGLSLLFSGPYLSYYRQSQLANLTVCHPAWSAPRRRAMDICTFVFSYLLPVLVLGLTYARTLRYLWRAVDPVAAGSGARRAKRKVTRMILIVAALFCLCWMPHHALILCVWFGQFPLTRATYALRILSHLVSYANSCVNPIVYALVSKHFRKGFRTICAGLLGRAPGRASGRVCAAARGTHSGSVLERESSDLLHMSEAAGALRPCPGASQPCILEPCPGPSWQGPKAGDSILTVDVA
Protocol: as §1, §2, §3, §4, §5

human GAL1 receptor = target: T3, human GAL1 receptor (Homo sapiens, UniProt P47211); assay: Radioligand binding at cloned human GAL1 receptor; details: read-out: Ki (nM) GalR1
T3 construct: expressed in transfected cells
T3 sequence (P47211 1-349): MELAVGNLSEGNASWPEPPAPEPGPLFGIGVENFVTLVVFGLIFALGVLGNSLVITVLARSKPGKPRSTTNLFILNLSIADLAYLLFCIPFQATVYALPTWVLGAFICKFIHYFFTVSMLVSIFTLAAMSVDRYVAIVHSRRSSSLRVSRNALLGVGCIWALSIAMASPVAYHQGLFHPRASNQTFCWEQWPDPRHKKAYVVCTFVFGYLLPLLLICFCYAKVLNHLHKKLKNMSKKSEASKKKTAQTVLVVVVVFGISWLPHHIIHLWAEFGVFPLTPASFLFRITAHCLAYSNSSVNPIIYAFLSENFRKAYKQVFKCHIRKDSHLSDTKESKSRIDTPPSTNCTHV
Protocol: as §1, §2, §3
Membranes were harvested from stably transfected LM(tk−) cells. Adherent cells were washed twice in ice-cold phosphate buffered saline (138 mM NaCl, 8.1 mM Na2HPO4, […] KCl, 1.2 mM KH2PO4, 0.9 mM CaCl2, 0.5 mM MgCl2, pH 7.4) and lysed by sonication in ice-cold sonication buffer (20 mM Tris-HCl, 5 mM EDTA, pH 7.7). Large particles and debris were cleared by low speed centrifugation (200×g, 5 min, 4° C.). Membranes were collected from the supernatant fraction by centrifugation (32,000×g, 18 min, 4° C.), washed with ice-cold hypotonic buffer, and collected again by centrifugation (32,000×g, 18 min, 4° C.). The final membrane pellet was resuspended by sonication into a small volume of ice-cold binding buffer (˜1 ml for every 5 plates: 10 mM NaCl, […] HEPES, 0.22 mM KH2PO4, 1.26 mM Cal2, 0.81 mM MgSO4, pH 7.4). Protein concentration was measured by the Bradford method (Bradford, 1976) using Pio-Rad Reagent, with bovine serum albumin as a standard. Membranes were held on ice for up to one hour and used fresh, or flash frozen and stored in liquid nitrogen. Membranes were prepared similarly from CHO cells. […]
as §5

## COc1ccc(N2CCN(c3nc(Nc4ccc(C)cc4)cc(N4CCCCC4)n3)CC2)c(OC)c1 [Example 28]
Human GAL3 receptor; Table 1, pyrimidines, read-out: Ki (nM) GalR3
  Ki: 270 nM
Human GAL2 receptor; Table 1, pyrimidines
  Ki: > 5000 nM
Human GAL1 receptor; Table 1, pyrimidines
  Ki: > 5000 nM

## CN(C)c1cc(N)nc(N(c2ccccc2)c2ccc(Cl)cc2)n1 [Example 58]
Human GAL3 receptor; Table 2, pyrimidines, read-out: Ki (nM) GalR3
  Ki: 783 nM
Human GAL2 receptor; Table 2, pyrimidines
  Ki: > 5000 nM
Human GAL1 receptor; Table 2, pyrimidines
  Ki: > 5000 nM

## CN(C)c1cc(NC2C3CC4CC(C3)CC2C4)nc(N2CCN(Cc3ccccc3)CC2)n1 (stereo not shown) [Example 137]
Human GAL3 receptor; Table 3a, pyrimidines, read-out: Ki (nM) Gal3
  Ki: 124 nM
